Experimental data reported in patent US10792249B2, “High drug loading pharmaceutical compositions” (AcrysPharm LLC, priority 2017, dated 2020).

Assay: Preliminary screening of ibuprofen solubility in HPMC
Assay type: physicochemical
Settings: 0.5 part ibuprofen in 1 part HPMC w/w
Description: As listed in Table 4, […] process, which is a common procedure to generate glass-solution solid dispersion (Newman, ‘Pharmaceutical Amorphous Solid Dispersions’, Wiley (2015)). […] Therefore, these dispersions exceed the solubility limit of ibuprofen in HPMC.

solubility of ibuprofen in HPMC: about 50 wt % of HPMC
Structure (SMILES): CC(C)Cc1ccc(C(C)C(=O)O)cc1 (racemic) [ibuprofen]
